Assay results taken from patent publication US9403997B2, “Non-VOC neutralizing agents for coatings” (Hercules Incorporated, priority 2012, dated 2016).

Legend:
[1] = Neutralizing agents tested in paint: viscosity, pH, gloss and yellowing compared to AMP-95 (Table 3); set-up: KU (eq) / ICI (eq): unit not given here; details: for pH (eq): pH of paint; for ICI (eq) / KU (eq): paint viscosity, 23PVC 50-VOC Vinyl Acrylic Semi-Gloss White, HASE thickener
Text: The neutralizing agents shown in Table 2 were further tested in a paint formulation 23[…] Vinyl Acrylic Semi-Gloss White, using a HASE thickener. Gloss measurements, as well as yellowing were compared to AMP-95.

[2] = Formulations of Table 2 tested in paint for gloss and yellowness (Table 4)
Protocol: The formulations shown in Table 2 were tested in 23PVC50-VOC vinyl acrylic (UCAR379G) white and tested for gloss and yellowness.

Compound	pH (eq) [1]	ICI (eq) [1]	KU (eq) [1]	pH ([2]; pH of paint, 23PVC50-VOC vinyl acrylic (UCAR379G) white)	ICI (eq) ([2]; paint viscosity)	KU (eq) ([2]; paint viscosity)
NCC(=O)O [Glycine (neutralized w/NaOH), Glycine]	9.7	1.023	94			
C[C@H](N)C(=O)O [L-Alanine (neutralized w/NaOH), L-Alanine]	8.61	1.052	94.3			
CC(C)(N)CO [AMP-95, 2-amino-2-methyl-1-propanol, reference compound]	8.77	1.110	95.2	8.78	1.110	95.2
DL-Aspartic Acid Potassium Salt Hemihydrate	8.54	1.046	90.8			
